In PubChem BioAssay (NCI):
“And” between values parts separate entries of the source, which are not always exact repeats. Equal values may be shown once.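 Following 48 hours of exposure in 96-well plates, responses at five concentrations were used to interpolate endpoints linearly. Here, GI50 denotes the concentration required for 50% inhibition of growth. The concentration for full growth arrest is given as TGI.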

Legend:
Experiment in all cases: growth of human tumour cells (NCI), 48 h
[1] = tested on: UACC-257 melanoma
[2] = tested on: MOLT-4 leukemia
[3] = tested on: U251 CNS
[4] = tested on: CCRF-CEM leukemia
[5] = tested on: HL-60(TB) leukemia
[6] = tested on: OVCAR-5 ovarian
[7] = tested on: A549 NSCLC
[8] = tested on: OVCAR-3 ovarian
[9] = tested on: SN12C renal
[10] = tested on: SK-OV-3 ovarian
[11] = tested on: SF-539 CNS
[12] = tested on: SK-MEL-28 melanoma
[13] = tested on: HCC-2998 colon
[14] = tested on: SNB-19 CNS
[15] = tested on: RXF 393 renal
[16] = tested on: SF-268 CNS
[17] = tested on: OVCAR-4 ovarian
[18] = tested on: SR leukemia
[19] = tested on: SNB-75 CNS
[20] = tested on: IGROV1 ovarian
[21] = tested on: NCI-H460 lung
[22] = tested on: RPMI-8226 leukemia
[23] = tested on: BT-549 breast
[24] = tested on: HOP-92 NSCLC
[25] = tested on: MCF7 breast
[26] = tested on: KM12 colon
[27] = tested on: MDA-MB-231 breast
[28] = tested on: TK-10 renal
[29] = tested on: MALME-3M melanoma
[30] = tested on: HS 578T breast
[31] = tested on: UACC-62 melanoma
[32] = tested on: 786-0 renal
[33] = tested on: LOX IMVI melanoma
[34] = tested on: CAKI-1 renal
[35] = tested on: COLO 205 colon
[36] = tested on: NCI-H23 lung
[37] = tested on: SF-295 CNS
[38] = tested on: HT29 colon
[39] = tested on: HOP-62 NSCLC
[40] = tested on: DU-145 prostate
[41] = tested on: MDA-N
[42] = tested on: HCT-15 colon
[43] = tested on: NCI/ADR-RES ovarian
[44] = tested on: ACHN renal
[45] = tested on: SW-620 colon
[46] = tested on: SK-MEL-2 melanoma
[47] = tested on: T-47D breast
[48] = tested on: K-562 leukemia
[49] = tested on: MDA-MB-435
[50] = tested on: M14 melanoma
[51] = tested on: HCT-116 colon
[52] = tested on: UO-31 renal
[53] = tested on: SK-MEL-5 melanoma
[54] = tested on: PC-3 prostate
[55] = tested on: OVCAR-8 ovarian
[56] = tested on: NCI-H226 lung
[57] = tested on: NCI-H522 lung
[58] = tested on: EKVX NSCLC
[59] = tested on: A498 renal

## COC1OC(COC(=O)NCCCCC(=O)C(F)(F)C(F)(F)C(F)(F)C(F)(F)C(F)(F)C(F)(F)C(F)(F)F)C(O)C(O)C1O (configuration not stated)
[1]
  TGI: 36.2 µM and 37.7 µM
[2]
  GI50: 12.5 µM and 4.13 µM
  TGI: 31.7 µM and 23.1 µM
[3]
  TGI: 39.7 µM and 24.6 µM
[4]
  GI50: 16.4 µM and 7.62 µM
  TGI: 44 µM and 37.4 µM
[5]
  GI50: 24.9 µM
  TGI: > 100 µM
[6]
  TGI: 32.9 µM and 32.3 µM
[7]
  TGI: 36.1 µM and 31 µM
[8]
  TGI: 29.2 µM and 28.1 µM
[9]
  TGI: 40.2 µM and 43.5 µM
[10]
  TGI: 29.2 µM and 27.2 µM
[11]
  TGI: 29.5 µM and 34.2 µM
[12]
  TGI: 31 µM and 30.5 µM
[13]
  TGI: 36.5 µM and 37.5 µM
[14]
  TGI: 34 µM and 34.1 µM
[15]
  TGI: 26.4 µM and 30.2 µM
[16]
  TGI: 30.8 µM and 37.1 µM
[17]
  TGI: 35.3 µM and 28.5 µM
[18]
  TGI: > 100 µM
[19]
  TGI: 29.3 µM and 27.6 µM
[20]
  TGI: 30.9 µM and 27.4 µM
[21]
  TGI: 36.3 µM and 49.5 µM
[22]
  TGI: > 100 µM
[23]
  TGI: 31.4 µM and 31.9 µM
[24]
  GI50: 14.2 µM and 2.27 µM
  TGI: 28.6 µM and 15.6 µM
[25]
  TGI: 33.6 µM and 33.4 µM
[26]
  TGI: 37.1 µM and 48.7 µM
[27]
  TGI: 42.3 µM and 40.2 µM
[28]
  TGI: 30 µM and 32 µM
[29]
  TGI: 44.3 µM and 47.3 µM
[30]
  TGI: 43.8 µM and 33.7 µM
[31]
  TGI: 26.6 µM and 27.5 µM
[32]
  TGI: 31.4 µM and 30.1 µM
[33]
  TGI: 30.2 µM and 27.9 µM
[34]
  TGI: 32.9 µM and 30 µM
[35]
  TGI: 45 µM and 39.7 µM
[36]
  TGI: 40.4 µM and 34.1 µM
[37]
  TGI: 44.8 µM and 44.2 µM
[38]
  TGI: 27.4 µM and 35 µM
[39]
  TGI: 32.1 µM and 30.1 µM
[40]
  GI50: 34.8 µM and 4.86 µM
  TGI: > 100 µM and 29.9 µM
[41]
  TGI: 51.9 µM and 61.3 µM
[42]
  TGI: 33.1 µM and 38.3 µM
[43]
  TGI: 61.8 µM and > 100 µM
[44]
  TGI: 31.8 µM and 29.9 µM
[45]
  TGI: 31.9 µM and 31.7 µM
[46]
  TGI: 40.1 µM and 40.3 µM
[47]
  TGI: 39.1 µM and 32.5 µM
[48]
  TGI: 36.8 µM and 37.5 µM
[49]
  TGI: 32.2 µM and 31.7 µM
[50]
  TGI: 29.7 µM and 29.4 µM
[51]
  TGI: 39.4 µM and 31.9 µM
[52]
  TGI: 30.5 µM and 30.8 µM
[53]
  TGI: 25.8 µM and 24.3 µM
[54]
  TGI: 25.9 µM and 26.5 µM

## O=[N+]([O-])c1ccc2c3c1[C@H]1O[C@H]1c1cccc(c1-3)[C@@H]1O[C@H]21
[1]
  TGI: 4.87 µM
[2]
  TGI: > 100 µM
[3]
  TGI: 3.98 µM
[55]
  TGI: 3.24 µM
[5]
  TGI: 8.85 µM
[56]
  TGI: > 100 µM
[6]
  TGI: 6.77 µM
[7]
  TGI: 15.5 µM
[57]
  TGI: 3.42 µM
[8]
  TGI: 6.2 µM
[9]
  TGI: 4.69 µM
[10]
  TGI: 11.6 µM
[11]
  TGI: 4.09 µM
[12]
  TGI: 6.73 µM
[14]
  TGI: 13.6 µM
[15]
  TGI: 3.38 µM
[58]
  TGI: 4.08 µM
[16]
  TGI: 4.38 µM
[17]
  TGI: 4.46 µM
[18]
  TGI: > 100 µM
[19]
  TGI: 4.1 µM
[22]
  TGI: > 100 µM
[23]
  TGI: 3.89 µM
[24]
  TGI: 5.03 µM
[25]
  GI50: 2780 nM
  TGI: > 100 µM
[26]
  TGI: 5.86 µM
[27]
  TGI: 3.87 µM
[28]
  TGI: > 30 µM
[29]
  TGI: 4.64 µM
[30]
  TGI: 7.06 µM
[31]
  TGI: 3.69 µM
[32]
  TGI: 3.56 µM
[33]
  TGI: 1.28 µM
[34]
  TGI: 3.73 µM
[35]
  GI50: 1720 nM
  TGI: 3.69 µM
[36]
  TGI: 3.88 µM
[37]
  TGI: 12.3 µM
[38]
  TGI: 6.57 µM
[39]
  TGI: 10.8 µM
[40]
  TGI: 6.25 µM
[41]
  TGI: 4.91 µM
[42]
  TGI: 4.47 µM
[43]
  TGI: 5.65 µM
[44]
  TGI: 5.17 µM
[45]
  TGI: 2.75 µM
[46]
  TGI: > 100 µM
[47]
  TGI: 6.18 µM
[48]
  TGI: > 100 µM
[49]
  TGI: 4.14 µM
[50]
  TGI: 3.75 µM
[51]
  TGI: 3.59 µM
[52]
  TGI: 3.62 µM
[53]
  TGI: 7.82 µM
[54]
  TGI: > 20 µM

## Cc1nn(CN2CCN(C)CC2)c(=S)n1/N=C/c1ccc(-c2ccc(Cl)cc2Cl)o1
[1]
  TGI: > 100 µM
[2]
  TGI: 98.2 µM
[3]
  TGI: > 100 µM
[55]
  TGI: > 100 µM
[5]
  TGI: > 100 µM
[56]
  TGI: 95.2 µM
[6]
  TGI: > 100 µM
[7]
  TGI: > 100 µM
[57]
  TGI: > 100 µM
[8]
  TGI: > 100 µM
[9]
  TGI: > 100 µM
[10]
  TGI: > 100 µM
[11]
  TGI: > 100 µM
[12]
  TGI: > 100 µM
[13]
  TGI: > 100 µM
[14]
  TGI: > 100 µM
[58]
  TGI: 88.8 µM
[16]
  TGI: > 100 µM
[17]
  TGI: > 100 µM
[18]
  TGI: > 100 µM
[20]
  TGI: > 100 µM
[23]
  TGI: > 100 µM
[24]
  TGI: > 100 µM
[25]
  TGI: > 100 µM
[26]
  TGI: > 100 µM
[27]
  TGI: > 100 µM
[28]
  TGI: > 100 µM
[29]
  TGI: > 100 µM
[59]
  TGI: 56.8 µM
[30]
  TGI: > 100 µM
[31]
  TGI: > 100 µM
[32]
  TGI: > 100 µM
[33]
  TGI: > 100 µM
[35]
  TGI: > 100 µM
[36]
  TGI: > 100 µM
[38]
  TGI: > 100 µM
[39]
  TGI: > 100 µM
[40]
  TGI: > 100 µM
[41]
  TGI: > 100 µM
[42]
  TGI: > 100 µM
[43]
  TGI: > 100 µM
[44]
  TGI: > 100 µM
[45]
  TGI: > 100 µM
[46]
  TGI: > 100 µM
[47]
  TGI: > 100 µM
[48]
  TGI: > 100 µM
[49]
  TGI: > 100 µM
[50]
  TGI: > 100 µM
[51]
  TGI: > 100 µM
[52]
  TGI: > 100 µM
[53]
  TGI: > 100 µM
[54]
  TGI: > 100 µM
